Results from patent US20060160897A1, “Topical Use of Valproic Acid for the Prevention or Treatment of Skin Disorders” (priority 2003, published 2006).

How the values were obtained:
[1] = In vitro skin permeation assay, Franz type diffusion cell with SCE membranes; format: in vitro ADME, human; conditions: sodium valproate 3% (w/w) in Sepigel gel, SCE membranes 0.75 cm^2, 10 h, 35° C.; FIG. 6
Experimental: The resulting gel was stored at room temperature for 24 h prior to use.
In vitro skin permeation assay: The analyses were carried out using a Franz type glass diffusion cell (LGA, Berkeley, Calif., USA) assembled with membranes carrying stratum corneum and epidermis (SCE). Adult human skin samples (mean age 29±5 years) were obtained from abdominal reduction surgery. Subcutaneous fat was trimmed and the skin samples were immersed in distilled water at 60° C. for 1 min; then stratum corneum and epidermis (SCE) were peeled off The SCE samples were dried at room temperature in a desiccator maintained at approximately 25% relative humidity. […] Skin barrier integrity of the SCE membranes used in this protocol was assessed by determining their tritiated water permeability coefficient (Kp). […] All samples were analyzed for sodium valproate contents by means of an HPLC with spectrofluorimetric detection. The results were expressed as total amount permeated (mg).
Quantitative determination of Sodium Valproate: To determine sodium valproate, samples were derivatized with 4-bromomethyl-7-methoxycoumarin (BMMC). […]
Adult human skin samples (skin surface area was 0.75 cm^2) were prepared as described in the methods section. […] All samples were analyzed for sodium valproate contents by means of an HPLC with spectrofluorimetric detection. The results were expressed as total amount permeated (mg).

[2] = tested on: acetylated histones H3 and H4 and HDAC-2; experiment: Western blot of peripheral blood cells from patients treated with VPA intravenously (Phase I/II study); format: in vivo, human; conditions: before, 6 h, 24 h, 48 h after start, FIG. 18
Experimental: Whole cell extracts were prepared by lysis of cells in RIPA buffer including protease inhibitors. Lysates were separated by SDS gel electrophoresis and transferred onto PVDF membranes. Acetylated histones H3 and H4 and the marker gene HDAC-2 were detected by western blot analysis using an anti-acetylated H3 antibody (Upstate, #06-942), an anti-acetylated H4 antibody (clon T25; patent application EP 02.021984.6), and an anti-HDAC-2 antibody (SCBT, SC-7899). As an equal loading control PVDF membranes were stained with Coomassie (FIG. 18).

IL-2 and TNF-α = IL-2 and TNF-α ELISA, supernatants of stimulated peripheral blood lymphocytes; format: cell-based, human
Experimental: Monocyte and macrophage depleted peripheral blood mononuclear cells were obtained from consenting adults via separation using Ficoll-Hypaque. The peripheral blood mononuclear cells (PBMC) fraction was washed and seeded in 9 cm petri dishes. After an incubation of 2 hours at 37° C. to remove most of the monocytes, macrophages, and B-cells, the non-adherent cells were collected and cultured in 175 cm^2 flasks for 2 days. Cells were harvested and adjusted to 3 million cells per ml. Aliquots of 500 μl were transferred to each well of 24-well flat bottom plates. Peripheral blood lymphocytes (PBL's) were treated with various concentrations of HDAC inhibitors as indicated. After a 2 hours incubation time at 37° C. cells were stimulated with phorbol 12-myristate 13-acetate (PMA)/ionomycin (Ion) or activated via T cell receptor (TCR/CD3) complex with 10 μg/ml anti-CD3 mAb (OKT3) and 2.5 μg/ml anti-CD28 mAb. After 24 hours at 37° C. the supernatant was removed and frozen for cytokine assays. Cell pellets were lysed and total RNA was isolated using the RNeasy mini kit from Qiagen.
To perform ELISAs, supernatants of treated and untreated PBL's were collected and IL-2 as well as TNF-α were measured using the Duo Set ELISA Development System (R&D Systems) as described by the manufacturer.

histone H4 acetylation = experiment: Western blot of acetylated histone H4 in keratinocytes; format: cell-based, human; conditions: HaCaT, 24 hours treatment; FIG. 7
Experimental: Western blot: HaCaT cells were seeded into 6-well culture dishes 24 hrs before treatment. […] Whole cell extracts were prepared by lysis of cells in RIPA buffer plus protease inhibitors for denaturing SDS gel electrophoresis on a 12% denaturing polyacrylamid gel. Acetylated histone H4 was detected by Western blot analysis using an anti-acetylated H4 antibody (clone T25; see patent application EP 02.021984.6) and as an equal loading control expression of β-actin was confirmed using an anti-actin antibody (Sigma, Cat. No. A5441).
Cells were plated in 6 well plates at day 0. Drugs were added on day 1, cells were lysed on day 2 with RIPA buffer plus protease inhibitors. 40 μg of total cell lysate were separated by 12.5% SDS PAGE and subjected to immunoblotting with the indicated antibodies.

[3] = 1 mM, other experiments, PBLs stimulated with PMA/ION and CD3/CD28 mAbs, FIG. 16
[4] = PBLs, increasing concentrations two hours, CD3 and CD28 mAbs 24 hours, FIG. 15

**Q.** Which “permeation of human skin (total amount permeated)” value [1] does the source give for CCCC(CCC)C(=O)O [VPA, 2-propyl-pentanoic acid] here?
**A.** permeates the skin in a time dependent manner

**Q.** And the “HDAC-2 protein in peripheral blood cells” value [2]?
**A.** down-regulation of the marker protein HDAC-2

**Q.** What about the “histone H3 and H4 acetylation in peripheral blood cells” value [2] of the same compound?
**A.** Histone H3 and H4 hyperacetylation

**Q.** What about the IL-2 secretion (IL-2 and TNF-α; 0.5 mM, PBLs, CD3/CD28, FIG. 15) of the same compound?
**A.** only moderate effect

**Q.** What about the IL-2 secretion (IL-2 and TNF-α; 1 mM, PBLs, CD3/CD28, FIG. 15) of the same compound?
**A.** only moderate effect

**Q.** And the IL-2 secretion (IL-2 and TNF-α; [3])?
**A.** significant decrease

**Q.** And the TNF-α secretion (IL-2 and TNF-α; [3])?
**A.** significant decrease

**Q.** And the IL-2 secretion (IL-2 and TNF-α; 5 mM, PBLs, CD3/CD28, FIG. 15)?
**A.** significantly reduced

**Q.** And the “IL-2 secretion, dose-response” value (IL-2 and TNF-α; [4])?
**A.** dose-dependent inhibition

**Q.** What about the “TNF-α secretion, dose-response” value (IL-2 and TNF-α; [4]) of the same compound?
**A.** dose-dependent inhibition

**Q.** And the “histone H4 acetylation (Western blot)” value (histone H4 acetylation)?
**A.** induces histone H4 hyperacetylation in a dose dependent manner
